Assay results: US20120283120A1, “SCREENING METHOD” (Takeda Pharmaceutical Company Limited, priority 2009, published 2012)

Key:
Assay type in all cases: cell-based, human
22Rv1 cells = experiment: colony formation assay of 22Rv1 cells after shRNA expression vector transfection; conditions: androgen-free conditions
Source text: Expression plasmids of shRNA targeting AR-specific exon 8 (shAR), shRNA targeting ARaiv1-specific exon 4b (shARaiv1) and shRNA targeting exon 1 common to the both (shDual) were constructed using siSTRIKE U6 hairpin cloning system (Promega). The target sequences of shAR and siARaiv1 were the same as those of the above-mentioned siAR and siARaiv1. As the target sequence of shRNA specific to exon 1 (shDual), the sequence of exon 1-specific siRNA (5′-[…]-3′ (SEQ ID NO: 31)) contained in siDual was used.
The expression vector of shAR, siARaiv1 or shDual was transfected into 22Rv1 cells, and a colony formation assay was carried out under androgen-free conditions. In the siARaiv1 transfection group, the number of colonies decreased to 19% of that of the non-specific shRNA (shNS) transfection group (NS group). In the shDual transfection group, the number of colonies decreased to 4% of that of the NS group, and remarkable suppression of colony formation was observed. On the other hand, the colony formation ability of the shAR transfection group was 54% of the NS group, and the decrease was weaker as compared to the ARaiv1 knockdown group.

JDCaP-hr cells = experiment: JDCaP-hr cell proliferation after siRNA transfection; conditions: cultured for 5 days; for growth promotion due to DHT: DHT added; for cell proliferation (growth inhibition): androgen-free conditions
Method: siRNA targeting AR-specific exon 8 (siAR), siRNA targeting ARaiv1-specific exon 4b (siARaiv1) or siRNA targeting exon 1 common to the both (siDual) was transfected into JDCaP-hr cells, the cells were cultured for 5 days in an androgen-free medium added with DHT or DMSO, and the cell proliferation was measured (FIG. 7). […] On the other hand, the growth inhibitory effect was partial in the siAR transfection group.

[1] = system: C-terminally defective-type AR; experiment: Western blotting of AR production after siRNA transfection in JDCaP-hr cells; conditions: 48 hr from siRNA transfection
Source text: (§1) An siRNA targeting exon 4b specific to ARaiv1 (siARaiv1: 5′-[…]-3′ (SEQ ID NO: 29)) was designed and synthesized by Qiagen. In addition, an siRNA targeting exon 8 specific to AR (siAR: Hs_AR—6_HP Validated siRNA: 5′-[…]-3′ (SEQ ID NO: 30)) and an siRNA cocktail containing siRNA targeting exon 1 common to AR and ARaiv1 (siDual: OTP SMART pool, L-003400-00-0005) were purchased from Qiagen and Dharmacon, respectively. siAR, siARaiv1 or siDual was transfected into JDCaP-hr cells. RNA was extracted from the cells after 48 hr from the siRNA transfection, and the expression level of the target gene was analyzed by quantitative RT-PCR. As a result, it was confirmed that gene knockdown by each siRNA was carried out sufficiently efficiently (FIG. 6a). To examine changes in the C-terminally defective-type AR protein production, which were caused by the ARaiv1 knockdown, an extract was prepared from the cells after 48 hr from the siRNA transfection, and the production of AR and β-actin was examined by Western blotting. The production of only full-length AR in the siAR transfection group, only C-terminally defective-type AR in the siARaiv1 transfection group, and the both in the siDual transfection group decreased (FIG. 6b).

full-length AR = experiment: as above; conditions: 48 hr from siRNA transfection
Source text: as §1

[2] = system: 4 kinds of ARaiv1 clones (ARaiv1, ARaiv1Δ1, ARaiv1Δ2, ARaiv1Δ3); experiment: reporter gene assay of ARaiv1 clones with pGL3-2×PSA reporter in COS7 cell (luciferase); conditions: bicalutamide added 24 hr after cotransfection, luciferase assay 24 hr later
Method: The above-mentioned 4 kinds of ARaiv1 clones (ARaiv1 and ARaiv1Δ1, ARaiv1Δ2 and ARaiv1Δ3) were respectively subcloned to a pcDNA3.1 expression vector, and the transcription activity was examined by a reporter gene assay. The ARaiv1 clone expression vector and pGL3-2×PSA reporter were cotransfected into COS7 cell. After 24 hr, DHT or an AR antagonist bicalutamide, was added, and 24 hr later, a luciferase assay was performed.

Compound | number of colonies relative to non-specific shRNA (NS) group (22Rv1 cells) [%] | growth promotion due to DHT (JDCaP-hr cells) | cell proliferation (growth inhibition) (JDCaP-hr cells) | production of C-terminally defective-type AR [1] | production of full-length AR (full-length AR) | transcription activity of 4 kinds of ARaiv1 clones (reporter activity) [2]
siARaiv1: siRNA targeting exon 4b specific to ARaiv1: 5′-gattgttcttgatcacata-3′ (SEQ ID NO: 29) (GATTGTTCTTGATCACATA; listed as DNA, chemistry not given here) | 19 | growth promotion due to DHT was observed | remarkable growth inhibition | decreased |  | 
siAR: siRNA targeting exon 8 specific to AR, Hs_AR—6_HP Validated siRNA: 5′-ggaacucgaucguaucauu-3′ (SEQ ID NO: 30) (GGAACUCGAUCGUAUCAUU; chemistry not given here) |  | remarkably inhibited | partial |  | decreased | 
CC(O)(CS(=O)(=O)c1ccc(F)cc1)C(=O)Nc1ccc(C#N)c(C(F)(F)F)c1 (centres unmarked) [bicalutamide] |  |  |  |  |  | not inhibited
